Where two headings read alike, the source gives them in different places.
Columns and labels:
[1] = test system: TGF-β; assay: AlphaScreen SureFire p-SMAD3 (Ser423/425) assay, TGF-β-stimulated cells; assay type: cell-based; details: Mus musculus
In short: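 The p-SMAD-3 (Ser423/425) SureFire assay measured phosphorylation of endogenous SMAD-3 in cell lysates. Cells were plated overnight in collagen-coated plates, exposed to three-fold serially diluted compounds for about 10 minutes, then stimulated with TGFβ. Lysates (5 μL) received acceptor bead mix for 2 hours, then donor beads for 1½ hours before AlphaScreen reading.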

[2] = test system: GDF8; assay: AlphaScreen SureFire p-SMAD3 (Ser423/425) assay, GDF8-stimulated cells; assay type: cell-based; details: Mus musculus
In short: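 Lysate (5 μL) went into 384-well shallow plates with 5 μL of Reaction Buffer, Activation Buffer and AlphaScreen Acceptor bead mix. Plates were sealed, kept dark and shaken for 2 hours at room temperature. Donor beads in dilution buffer (2 μL) were added for another 1½ hours, and p-SMAD3 signal was read on a Synergy-4 or Enspire reader.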

[3] = MPC-11, read-out: TGF-β: inhibition of TGF-β signaling, TGF-β pSMAD (MPC-11), p-SMAD3 (Ser423/425) AlphaScreen in cell lysate, TGF-β stimulation
[4] = MPC-11, read-out: GDF8: inhibition of GDF8 signaling, GDF pSMAD (MPC11), p-SMAD3 (Ser423/425) AlphaScreen in cell lysate, GDF8 stimulation
[5] = p-SMAD3 (Ser423/425) AlphaScreen in cell lysate, MPC-11, TGF-β stimulation, read-out: TGF-β: inhibition of TGF-β signaling, TGF-β pSMAD (MPC-11)
[6] = MPC-11, p-SMAD3 (Ser423/425) AlphaScreen in cell lysate, MPC11, GDF8 stimulation, read-out: GDF8: inhibition of GDF8 signaling, GDF pSMAD (MPC11)

SMILES | IC50 [1, 5] | IC50 [2, 6] | IC50 [1, 3] | IC50 [2, 4]
Fc1cc(F)cc(-c2nc3n(c2-c2ccc4[nH]ncc4c2)CCC3)c1 [Compound 230, 5-(2-(3,5-difluorophenyl)-6,7-dihydro-5H-pyrrolo[1,2-a]imidazol-3-yl)-1H-indazole] |  |  | > 1000 nM | 100 to 1000 nM
Fc1cc(Cl)c(-c2nc3n(c2-c2ccc4nccnc4c2)CCC3)cc1F [Compound 291, 6-(2-(2-chloro-4,5-difluorophenyl)-6,7-dihydro-5H-pyrrolo[1,2-a]imidazol-3-yl)quinoxaline] |  |  | 100 to 1000 nM | 50 to 100 nM
Fc1cc(F)c(F)c(-c2nc3n(c2-c2cc4cnccc4s2)CCN3)c1 [Compound 112, 2-(6-(2,3,5-trifluorophenyl)-2,3-dihydro-1H-imidazo[1,2-a]imidazol-5-yl)thieno[3,2-c]pyridine] | < 50 nM | < 50 nM |  | 
Fc1cc(Cl)c(-c2nc3n(c2-c2ccc4nccn4c2)CCC3)cc1F [Compound 50] | 100 to 1000 nM | 50 to 100 nM |  | 
Fc1cc(F)c(F)c(-c2nc3n(c2-c2ccc4ncsc4c2)CCC3)c1 [Compound 235, 6-(2-(2,3,5-trifluorophenyl)-6,7-dihydro-5H-pyrrolo[1,2-a]imidazol-3-yl)benzo[d]thiazole] |  |  | 100 to 1000 nM | 100 to 1000 nM
Fc1ccc(Cl)cc1-c1nc2n(c1-c1ccc3ncc(-n4ccnc4)nc3c1)CCC2 [Compound 360, 7-(2-(5-chloro-2-fluorophenyl)-6,7-dihydro-5H-pyrrolo[1,2-a]imidazol-3-yl)-2-(1H-imidazol-1-yl)quinoxaline] |  |  | < 50 nM | < 50 nM
Fc1ccc(-c2nc3n(c2-c2ccc4[nH]ncc4c2)CC2(CCCC2)C3)cc1 [Compound 324, 2′-(4-fluorophenyl)-3′-(1H-indazol-5-yl)-5′H,7′H-spiro[cyclopentane-1,6′-pyrrolo[1,2-a]imidazole]] |  |  | > 1000 nM | > 1000 nM
Cc1cc(-c2nc3n(c2-c2ccc4nccn4c2)CCC3)cc(Cl)c1F [Compound 41, 6-(2-(3-chloro-4-fluoro-5-methylphenyl)-6,7-dihydro-5H-pyrrolo[1,2-c]imidazol-3-yl)imidazo[1,2-c]pyridine] | > 1000 nM | > 1000 nM |  | 
Fc1cc(-c2nc3n(c2-c2ccc4[nH]ncc4c2)CCC3)cc(F)c1F [Compound 228, 5-(2-(3,4,5-trifluorophenyl)-6,7-dihydro-5H-pyrrolo[1,2-a]imidazol-3-yl)-1H-indazole] |  |  | 100 to 1000 nM | 100 to 1000 nM
Cc1cc(-c2nc3n(c2-c2ccc4ncsc4c2)CCC3)c(C)cc1F [Compound 309, 6-(2-(4-fluoro-2,5-dimethylphenyl)-6,7-dihydro-5H-pyrrolo[1,2-a]imidazol-3-yl)benzo[d]thiazole] |  |  | 100 to 1000 nM | 100 to 1000 nM
Cc1cc(-c2nc3n(c2-c2ccc4nccn4c2)CCC3)c(F)cc1Cl [Compound 29] | > 1000 nM | > 1000 nM |  | 
Fc1ccc(-c2nc3n(c2-c2ccc4[nH]ncc4c2)CCC3)c(F)c1F [Compound 225, 5-(2-(2,3,4-trifluorophenyl)-6,7-dihydro-5H-pyrrolo[1,2-a]imidazol-3-yl)-1H-indazole] |  |  | 100 to 1000 nM | 100 to 1000 nM
Fc1ccc(-c2nc3n(c2-c2ccc4ncnn4c2)CCC3)c(F)c1Cl [Compound 81, 6-(2-(3-chloro-2,4-difluorophenyl)-6,7-dihydro-5H-pyrrolo[1,2-a]imidazol-3-yl)-[1,2,4]triazolo[1,5-a]pyridine] |  |  | 100 to 1000 nM | 100 to 1000 nM
Fc1cccc(-c2nc3n(c2-c2ccc4[nH]ncc4c2)CCC3)c1 [Compound 193, 5-(2-(3-fluorophenyl)-6,7-dihydro-5H-pyrrolo[1,2-a]imidazol-3-yl)-1H-indazole] |  |  | > 1000 nM | 100 to 1000 nM
Fc1cccc(-c2nc3n(c2-c2ccc4ncsc4c2)CCC3)c1 [Compound 195, 6-(2-(3-fluorophenyl)-6,7-dihydro-5H-pyrrolo[1,2-a]imidazol-3-yl)benzo[d]thiazole] |  |  | 100 to 1000 nM | 100 to 1000 nM
Cc1cc(-c2nc3n(c2-c2ccc4nccn4c2)CCC3)cc(C)c1F [Compound 43, 6-(2-(4-fluoro-3,5-dimethylphenyl)-6,7-dihydro-5H-pyrrolo[1,2-a]imidazol-3-yl)imidazo[1,2-c]pyridine] | > 1000 nM | > 1000 nM |  | 
COc1ccc(-c2nc3n(c2-c2ccc4ncnn4c2)CCC3)cc1 [Compound 95, 6-(2-(4-methoxyphenyl)-6,7-dihydro-5H-pyrrolo[1,2-a]imidazol-3-yl)-[1,2,4]triazolo[1,5-a]pyridine] |  |  | > 1000 nM | > 1000 nM
Clc1ccc(Cl)c(-c2nc3n(c2-c2ccc4ncnn4c2)CCC3)c1 [Compound 92, 6-(2-(2,5-dichlorophenyl)-6,7-dihydro-5H-pyrrolo[1,2-a]imidazol-3-yl)-[1,2,4]triazolo[1,5-a]pyridine] |  |  | 100 to 1000 nM | 50 to 100 nM

Now from value to compound, other results behind:

IC50 [1, 5] | IC50 [2, 6] | SMILES | IC50 [1, 3] | IC50 [2, 4]
100 to 1000 nM | < 50 nM | Fc1ccc(-c2nc3n(c2-c2ccc4[nH]ncc4c2)CCC3)cc1Cl [Compound 264, 5-(2-(3-chloro-4-fluoropheny)-6,7-dihydro-5H-pyrrolo[1,2-a]imidazol-3-yl)-1H-indazole] |  | 
< 50 nM | < 50 nM | c1ccc(-c2nc3n(c2-c2ccc4ncsc4c2)CCC3)nc1 [Compound 367, 6-(2-(pyridin-2-yl)-6,7-dihydro-5H-pyrrolo[1,2-a]imidazol-3-yl)benzo[d]thiazole] |  | 
100 to 1000 nM | 50 to 100 nM | Fc1cc(F)c(-c2nc3n(c2-c2ccc4ncc(OCCN5CCOCC5)nc4c2)CCN3)cc1F [Compound 122, 4-(2-((7-(6-(2,4,5-trifluorophenyl)-2,3-dihydro-1H-imidazo[1,2-a]imidazol-5-yl)quinoxalin-2-yl)oxy)ethyl)morpholine] |  | 
100 to 1000 nM | 100 to 1000 nM | Cc1cc(F)c(Cl)cc1-c1nc2n(c1-c1ccc3ncsc3c1)CCC2 [Compound 297, 6-(2-(5-chloro-4-fluoro-2-methylphenyl)-6,7-dihydro-5H-pyrrolo[1,2-a]imidazol-3-yl)benzo[d]thiazole] |  | 
> 1000 nM | > 1000 nM | Fc1cccc(F)c1-c1nc2n(c1-c1ccc3[nH]ncc3c1)CCC2 [Compound 212, 5-(2-(2,6-difluorophenyl)-6,7-dihydro-5H-pyrrolo[1,2-a]imidazol-3-yl)-1H-indazole] |  | 
> 1000 nM | 100 to 1000 nM | Fc1ccccc1-c1nc2n(c1-c1ccc3nccnc3c1)CCC2 [Compound 200, 6-(2-(2-fluorophenyl)-6,7-dihydro-5H-pyrrolo[1,2-a]imidazol-3-yl)quinoxaline] |  | 
< 50 nM | < 50 nM | CN(C)CCOc1cnc2ccc(-c3c(-c4cc(Cl)ccc4F)nc4n3CCC4)cc2n1 [Compound 363, 2-((7-(2-(5-chloro-2-fluorophenyl)-6,7-dihydro-5H-pyrrolo[1,2-a]imidazol-3-yl)quinoxalin-2-yl)oxy)-N,N-dimethylethan-1-amine] |  | 
> 1000 nM | 100 to 1000 nM | Cc1cc(-c2nc3n(c2-c2ccc4[nH]ncc4c2)CCC3)cc(C)c1F [Compound 276, 5-(2-(4-fluoro-3,5-dimethylphenyl)-6,7-dihydro-5H-pyrrolo[1,2-a]imidazol-3-yl)-1H-indazole] |  | 
< 50 nM | < 50 nM | Fc1ccc(-c2nc3occn3c2-c2ccc3ncsc3c2)cc1 [Compound 127, 5-(benzo[d]thiazol-6-yl)-6-(4-fluorophenyl)imidazo[2,1-b]oxazole] |  | 
> 1000 nM | > 1000 nM | Cc1cccc(-c2nc3occn3c2I)c1 [Compound 138, 5-iodo-6-(m-tolyl)imidazo[2,1-b]oxazole] |  | 
> 1000 nM | 100 to 1000 nM | Fc1ccc(-c2nc3n(c2-c2ccc4nccnc4c2)CCC3)cc1F [Compound 208, 6-(2-(3,4-difluorophenyl)-6,7-dihydro-5H-pyrrolo[1,2-a]imidazol-3-yl)quinoxaline] |  | 
100 to 1000 nM | 100 to 1000 nM | Fc1ccc(-c2nc3occn3c2-c2ccc3cn[nH]c3c2)cc1 [Compound 128, 6-(4-fluorophenyl)-5-(1H-indazol-6-yl)imidazo[1,2-b]oxaozle] |  | 
100 to 1000 nM | 50 to 100 nM | OCC1Cn2c(nc(-c3cc(F)cc(F)c3F)c2-c2ccc3ncccc3c2)N1 (centres unmarked) [Compound 123, (5-(quinolin-6-yl)-6-(2,3,5-trifluorophenyl)-2,3-dihydro-1H-imidazo[1,2-a]imidazol-2-yl)methanol] |  | 
> 1000 nM | > 1000 nM | Fc1cccc(F)c1-c1nc2n(c1-c1ccc3cn[nH]c3c1)CCC2 [Compound 213, 6-(2-(2,6-difluorophenyl)-6,7-dihydro-5H-pyrrolo[1,2-a]imidazol-3-yl)-1H-indazole] |  | 
50 to 100 nM | < 50 nM | Cc1cc(-c2nc3n(c2-c2ccc4ncsc4c2)CCC3)c(F)cc1F [Compound 269, 6-(2-(2,4-difluoro-5-methylphenyl)-6,7-dihydro-5H-pyrrolo[1,2-a]imidaozl-3-yl)benzo[d]thiazole] |  | 
> 1000 nM | 100 to 1000 nM | Fc1cccc(-c2nc3n(c2-c2ccc4ncccc4c2)CCC3)c1 [Compound 209, 6-(2-(3-fluorophenyl)-6,7-dihydro-5H-pyrrolo[1,2-a]imidazol-3-yl)quinoline] |  | 

Reference: patent publication US10696693B2, “Fused imidazole derivatives as TGF-beta inhibitors” (Rigel Pharmaceuticals, Inc., priority 2014, dated 2020)
